In the supplement of paper PMC11061612:

Assays:
Assay in all cases: combination Emax (second highest fraction inhibited in the dose matrix, 72 h); higher = more inhibition; extreme values may be limits of the assay
[1] = system: SW872 (Other Solid Carcinomas)
Summary of the method: (§1)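 Bliss excess equals the observed combination effect minus the expected value EA + EB − EA·EB, where EA and EB are the effects of each agent alone. Combination Emax is the second-highest inhibition within the matrix. Inhibition was scaled from CellTiter-Glo 2.0 luminescence, with 0 set by vehicle wells and 1 by blank wells, after 72 hours of two-drug dosing of cells plated in 1536-well plates.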

[2] = system: A4-Fuk (B-Lymphoblastic Leukemia)
Summary of the method: as §1

[3] = system: NCI-H522 (Lung Adenocarcinoma)
Summary of the method: as §1

[4] = system: KGN (Other Solid Carcinomas)
Summary of the method: as §1

COLO-679 (Melanoma) = system: COLO-679 (Melanoma)
Summary of the method: as §1

[5] = system: SW982 (Other Solid Carcinomas)
Summary of the method: as §1

[6] = system: MV-4-11 (Acute Myeloid Leukemia)
Summary of the method: as §1

[7] = system: Mo-T (Other Blood Carcinomas)
Summary of the method: as §1

[8] = system: MOG-G-UVW (Low Grade Glioma)
Summary of the method: as §1

[9] = system: SKN (Other Solid Carcinomas)
Summary of the method: as §1

[10] = system: EFO-21 (Ovarian Carcinoma)
Summary of the method: as §1

[11] = system: COLO-668 (Small Cell Lung Carcinoma)
Summary of the method: as §1

[12] = system: HAL-01 (B-Lymphoblastic Leukemia)
Summary of the method: as §1

[13] = system: KMRC-1 (Kidney Carcinoma)
Summary of the method: as §1

[14] = system: MDA-MB-453 (Breast Carcinoma)
Summary of the method: as §1

[15] = system: SNU-387 (Hepatocellular Carcinoma)
Summary of the method: as §1

[16] = system: MOLT-4 (T-Lymphoblastic Leukemia)
Summary of the method: as §1

[17] = system: NCI-H1355 (Lung Adenocarcinoma)
Summary of the method: as §1

[18] = system: ME-180 (Cervical Carcinoma)
Summary of the method: as §1

[19] = system: OE33 (Esophageal Adenocarcinoma)
Summary of the method: as §1

SMILES	combination Emax [1]	combination Emax [2]	combination Emax [3]	combination Emax [4]	combination Emax (COLO-679 (Melanoma))	combination Emax [5]	combination Emax [6]	combination Emax [7]	combination Emax [8]	combination Emax [9]	combination Emax [10]	combination Emax [11]	combination Emax [12]	combination Emax [13]	combination Emax [14]	combination Emax [15]	combination Emax [16]	combination Emax [17]	combination Emax [18]	combination Emax [19]
CN(CCO)CC[C@H](CSc1ccccc1)Nc1ccc(S(=O)(=O)NC(=O)c2ccc(N3CCC([C@@H](O)c4ccccc4-c4ccc(Cl)cc4)CC3)cc2)cc1S(=O)(=O)C(F)(F)F [AZD4320] + C[C@@H](Nc1cc(F)cc(F)c1)c1cc(C(=O)N(C)C)cc2c(=O)cc(N3CCOCC3)oc12 [AZD8186] (first compound max 1 µM, 7x7, partner max 3 µM)	0.293	0.373	0.213	0.493	0.256	0.928	1	0.989	0.727	0.634	0.381	0.977	0.935	0.771	0.48	0.419	0.982	0.34	0.338	0.229
Cc1cc2ncnn2cc1Nc1ncc2c(n1)n(C1CCOCC1)c(=O)n2C [AZD7648] + CCN(CCO)CCCOc1ccc2c(Nc3cc(CC(=O)Nc4cccc(F)c4)[nH]n3)ncnc2c1 [AZD2811] (first compound max 10 µM, 7x7, partner max 1 µM)	0.271	0.699	0.213	0.722	0.203	0.621	0.945	0.37	0.686	0.282	0.297	0.158	0.342	0.267	0.362	0.254	0.965	0.519	0.389	0.245
C[C@@H](c1ccc2nccn2c1)n1nnc2ncc(-c3cnn(C)c3)nc21 [Savolitinib] + CC1(C)CCC(CN2CCN(c3ccc(C(=O)NS(=O)(=O)c4ccc(NCC5CCOCC5)c([N+](=O)[O-])c4)c(Oc4cnc5[nH]ccc5c4)c3)CC2)=C(c2ccc(Cl)cc2)C1 [Venetoclax] (first compound max 1 µM, 7x7, partner max 1 µM)	0.136	0.199	0.111	0.233	0.109	0.128	1	0.114	0.392	0.169	0.212	0.295	0.703	0.141	0.15	0.244	0.476	0.137	0.114	0.301
COc1cc2c(cc1OCCCCCOc1cc3c(cc1OC)C(=O)N1C=C(C)C[C@H]1C=N3)N=C[C@@H]1CC(C)=CN1C2=O [SG3199] + O=C(c1cc(Cc2n[nH]c(=O)c3ccccc23)ccc1F)N1CCN(C(=O)C2CC2)CC1 [Olaparib] (first compound max 0.001 µM, 7x7, partner max 10 µM)	0.0788	0.157	0.144	0.475	0.108	0.43	0.402	0.322	0.307	0.0757	0.176	0.163	0.215	0.0927	0.128	0.104	0.402	0.104	0.201	0.0504
Cc1nc(Nc2ncc(C(=O)Nc3c(C)cccc3Cl)s2)cc(N2CCN(CCO)CC2)n1 [Dasatinib] + CC(=O)Nc1cccc(-n2c(=O)n(C3CC3)c(=O)c3c(Nc4ccc(I)cc4F)n(C)c(=O)c(C)c32)c1 [Trametinib] (first compound max 2 µM, 7x7, partner max 1 µM)	0.566	0.848	0.251	0.8	0.757	0.936	0.791	0.137	0.677	0.683	0.479	0.458	0.526	0.739	0.224	0.511	0.424	0.482	0.476	0.641
N#Cc1cnc(Nc2cc(NC[C@H]3CNCCO3)c(C(F)(F)F)cn2)cn1 [SRA737] + CCc1c2c(nc3ccc(O)cc13)-c1cc3c(c(=O)n1C2)COC(=O)[C@]3(O)CC [SN-38] (first compound max 10 µM, 7x7, partner max 0.3 µM)	0.947	0.974	0.635	0.836	0.723	0.829	0.996	0.821	0.925	0.749	0.541	0.953	1	0.525	0.719	0.548	1	0.599	0.95	0.8
